Data: patent US11091460B2, “Syk inhibitor and use method therefor” (CHIA TAI TIANQING PHARMACEUTICAL GROUP CO., LTD., priority 2017, dated 2021)
Read-outs that look alike come from different tables or passages of the source.

Assays:
AKT phosphorylation = test: In vitro test of the inhibition effect on AKT phosphorylation (ELISA, Ramos cells); format: cell-based; conditions: Homo sapiens, Ramos
Description: Experimental Example 2: In Vitro Test of the Inhibition Effect of the Example Compounds on AKT Phosphorylation
• 2.1 Experimental Purpose: Intracellular protein kinase AKT phosphorylation detected by experiment was measured by enzyme-linked immunosorbent assay (ELISA), and the inhibition of the compound on protein kinase AKT phosphorylation was evaluated by an index of the half-cell inhibition concentration (IC50) value of the compound. • 2.2 Experimental Materials: • Cell line: Ramos cell line • Cell culture medium (RPMI1640, Invitrogen #22400-105; 10% serum Gibco #10099-141; L-glutamine 1×, Gibco #25030-081) • Experimental medium (without serum, RPM11640, Invitrogen #22400-105; L-glutamine 1×, Gibco #25030) • Lysis buffer (trishydroxymethylaminomethane hydrochloride, Invitrogen15567-1000 ml; sodium chloride, domestic; sodium deoxycholate, Sigma30970-25 G; polyethylene glycol octylphenyl ether, SigmaT9284-100 ml; dodecane sodium sulfonate, SigmaL3771; ethylenediaminetetraacetic acid, Invitrogen15575-038-100 ml; ultrapure water, MilliQ) • Protease inhibitor (Roche, 4693159001-30/BOX) • Phosphatase inhibitor mixture 2 (Sigma, P5726-5 ML) • Phosphatase inhibitor mixture 3 (Sigma, P0044-5 ML) • Goat Anti-Human immunoglobulin M (F(ab′)2 Goat Anti-Human IgM) (Jackson Immuno Research-109-006-129) • Phosphorylated AKT assay kit (Phospho-AKT 1/2/3 (ser473)) (TGR Bioscience, EKT002) • 10× Hank's balanced salt solution (Gibco #14065-056) • 96-well cell plate (Greiner #655090) • Compound V-well dilution plate (Axygen #WITP02280) • CO2 incubator (Thermo #371) • Centrifuge (Eppendorf #581 OR) • Vi-cell cell counter (Beckman Coulter) • Pipette (Eppendorf) • Pipette (Greiner) • Pipetting gun (Eppendorf) • Multi-purpose microplate reader (Envision Reader) • 2.3 Experimental procedures and methods: • a) Cell Seeding (Ramos Cells) • 1) The medium was preheated in a 37° C. water bath. Suspended cells and their culture solution were aspirated, centrifuged at 1000 rpm for 5 minutes. • 2) Aspirated the cell culture medium, added 10 mL of pre-warmed medium to the centrifuge tube, blew off the resuspended cells, pipette 1 mL of the cell suspension, and counted with Vi-cell; • 3) The Ramos cells were diluted with a medium to a density of 5×10^6/mL, and the diluted cells were added to a 96-well cell culture plate (100 μL/well) using a lance. Placed the cell plates in a 37° C., 5% CO2 incubator for overnight. • b) Cell starvation: • 1) After cultured the inoculation cells for overnight, centrifuged at 1000 rpm for 5 minutes on the next day, aspirated the original medium by a lance, added serum-free experimental medium, placed the cell plates in a 37° C., 5% CO2 incubator, and starved for overnight. • c) Compound preparation and dosing: • 1) The compound was diluted with dimethyl sulfoxide to give an initial concentration of 5 mM. A triple gradient dilution was done with compound V dilution plate to make 10 concentration points. • 2) Took another new compound V-well dilution plate, added 198 ul of serum-free experimental medium to each well, and then added 2 ul of the diluted compound above to each well, and mixed with a lance. […]

SYK kinase = target: T1, SYK kinase (Homo sapiens, UniProt P43405); test: In vitro test of the inhibition effect on SYK kinase (HTRF); format: biochemical; conditions: tyrosine kinase 0.0156 ng/μL, substrate 0.2 uM, ATP 2 uM, 23° C. 1 hour, read-out: Inhibit SYK kinase IC50
T1 construct: purchased Invitrogen PV3857
Description: Experimental Example 1: In Vitro Test of the Inhibition Effect of the Example Compounds on SYK Kinase
Adenosine triphosphate concentration was controlled at 2 uM. • 4) Loaded with a Multidrop automatic dispenser, and a mixture of tyrosinase solution and tyrosine kinase-substrate-biotin/adenosine triphosphate was added in an amount of 5 ul per well, and incubated at 23° C. for 1 hour. • c) Detection phase: • 1) Added 13.33 mL of ethylenediaminetetraacetic acid solution to the Detection Buffer in the kit, added the specified amount of […] (Eu)-labeled antibody and streptavidin XL-665, and prepared the detection solution. • 2) Loaded with a Multidrop automatic dispenser, and 10 uL of the detection solution per well, incubated at 23° C. for 1 hour. It terminated the reaction of the enzyme and substrate mixture. • 3) Reading after centrifugation on a multi-function microplate reader, • d) Data Analysis: Analyzed the data with XL-Fit, and calculated the IC50 value of the compound.

[1] = Ramos cell line, compound 1 hour, goat anti-human IgM 10 ug/ml for 10 minutes, Phospho-AKT 1/2/3 (ser473) ELISA, read-out: Inhibit AKT phosphorylation IC50
[2] = read-out: Inhibit AKT phosphorylation IC50 (nM)

Structure (SMILES) | IC50 (AKT phosphorylation; [1]) [nM] | IC50 (SYK kinase) [nM] | IC50 (AKT phosphorylation; [2]) [nM]
Cn1c(=O)c(Nc2ccc(N3CCOCC3)cc2)nc2ccc(-c3c[nH]cn3)cc21 [Example 31, 7-(1H-imidazol-4-yl)-1-methyl-3-((4-morpholinephenyl)amino)quinoxaline-2(1H)-one] | 132 | 81 | –
CN1CCN(c2ccc(Nc3nc4ccc(-c5cn[nH]c5)cc4n(C)c3=O)cc2)CC1 [Example 33, 1-Methyl-3((4-(4-methylpiperazin-1-yl)phenyl)amino)-7-(1H-pyrazol-4-yl) quinoxaline-2(1H)-one] | – | 3.2 | 226
Cn1c(=O)c(Nc2ccc(N3CCS(=O)(=O)CC3)cc2)nc2ccc(-c3cn[nH]c3)cc21 [Example 35, 3-((4-(1,1-Dioxothiomorpholine)phenyl)amino)-1-methyl-7-(1H-pyrazol-4-yl)quinoxaline-2(1H)-one] | 52.2 | 5.1 | –
CN1CCCN(c2ccc(Nc3nc4ccc(-c5cn[nH]c5)cc4n(C)c3=O)cc2)CC1 [Example 37, 1-Methyl-3-((4-(4-methyl-1,4-diazepan-1-yl)phenyl)amino)-7-(1H-pyrazol-4-yl)quinoxaline-2(1H)-one] | 261 | 10.1 | –
Cn1c(=O)c(Nc2ccc(S(=O)(=O)N3CCCCC3)cc2)nc2ccc(-c3cn[nH]c3)cc21 [Example 38, 1-Methyl-3-((4-(piperidin-1-ylsulfonyl)phenyl)amino)-7-(1H-pyrazol-4-yl)quinoxaline-2(1H)-one] | 343 | 40 | –
Cn1c(=O)c(Nc2ccc(N3CCNCC3)cc2)nc2ccc(-c3cn[nH]c3)cc21 [Example 39, 1-Methyl-3-((4-(piperazin-1-yl)phenyl)amino)-7-(1H-pyrazol-4-yl)quinoxaline-2(1H)-one] | 60.1 | 3.6 | –
Cn1c(=O)c(Nc2ccc(N3CCOCC3)cc2)nc2c(Cl)cc(-c3cn[nH]c3)cc21 [Example 41, 5-Chloro-1-methyl-3-((4-morpholinephenyl)amino)-7-(1H-pyrazol-4-yl)quinoxaline-2(1H)-one] | 98.8 | 4.8 | –
Cn1c(=O)c(Nc2ccc(N3CCOCC3)cc2)nc2c(F)cc(-c3cn[nH]c3)cc21 [Example 44] | 97 | 4.4 | –
Cn1c(=O)c(Nc2ccc(N3CCOCC3)cc2)nc2cc(F)c(-c3cn[nH]c3)cc21 [Example 45, 6-Fluoro-1-methyl-3-((4-morpholinephenyl)amino)-7-(1H-pyrazol-4-yl)quinoxaline-2(1H)-one] | 83.3 | 20.2 | –
Cn1c(=O)c(Nc2ccc(N3CCOCC3)cc2)nc2ccc(-c3cn[nH]c3)c(F)c21 [Example 46, 8-Fluoro-1-methyl-3-((4-morpholinephenyl)amino)-7-(1H-pyrazol-4-yl)quinoxaline-2(1H)-one] | 114 | 9.5 | –
Cn1c(=O)c(Nc2ccc(N3CCOCC3)c(F)c2)nc2ccc(-c3cn[nH]c3)cc21 [Example 48, 3-((3-Fluoro-4-morpholinephenyl)amino)-1-methyl-7-(1H-pyrazol-4-yl)quinoxaline-2(1H)-one] | 114 | 10.5 | –
Cn1c(=O)c(Nc2ccc(N3C4CCC3CNC4)cc2)nc2ccc(-c3cn[nH]c3)cc21 [Example 54, 3-[4-(3,8-Diazabicyclo[3.2.1]octane-8-yl)aniline]-1-methyl-7-(1H-pyrazol-4-yl)quinoxaline-2(1H)-one] | 69 | 5 | –
Cn1c(=O)c(Nc2ccc(N3CCCC(C(=O)O)C3)cc2)nc2ccc(-c3cn[nH]c3)cc21 (stereo not shown) [Example 55, 1-(4-((4-methyl-3-oxo-6-(1H-pyrazol-4-yl)-3,4-dihydroquinoxalin-2-yl)amino)phenyl)piperidine-3-carboxylic acid] | – | 4.1 | 116
Cn1c(=O)c(Nc2ccc(N3CCOCC3)cc2)nc2ccc(-c3csc(N)n3)cc21 [Example 59, 7-(2-Aminothiazol-4-yl)-1-methyl-3-((4-morpholinephenyl)amino)quinoxaline-2(1H)-one] | 248 | 46 | –
